Active and inactive are the calls of the source.
Tests used:
Cryptococcus neoformans = test: PubChem AID 686997; format: functional, organism-based
HeLa = test: HeLa cell cytotoxicity, dose response, cytotoxicity control, ATP luminescence, cherry-pick samples (AID 687004); format: functional, cell-based; conditions: Homo sapiens
[1] = cytotoxicity dependent on PAX8, dose response, cell-based, plate reader, dry powder (AID 743049); format: functional
Paired box protein Pax-8 = Paired box protein Pax-8 (Homo sapiens, UniProt Q06710); test: inhibitors of PAX8-driven TPO luciferase reporter, dose response, RMG-I cells, cherry-pick (AID 687027); format: functional, cell-based;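 also: luciferase reporter driven by Pax8 target thyroperoxidase promoter measured by SteadyGlo luminescence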
[2] = cytotoxicity in OV-90 ovarian cancer cells, dose response, PAX8 inhibitor project, cell-based, plate reader, dry powder, SA8 (AID 743149); format: functional
[3] = NIH3T3 fibroblast cytotoxicity, dose response, cytotoxicity control for PglD inhibitor project, cell-based, CellTiter-Glo luminescence, dry powder (AID 652044); format: functional
[4] = A2780 ovarian cancer cell cytotoxicity, dose response, cytotoxicity control, plate reader, dry powder samples (AID 743046); format: functional, cell-based
[5] = non-specific cell cytotoxicity, dose response, cytotoxicity control for PAX8 inhibitor project, plate reader, dry powder samples (AID 743021); format: functional, cell-based
[6] = IGROV1 ovarian cancer cell cytotoxicity, dose response, PAX8 inhibitor project, plate reader, dry powder samples (AID 743043); format: functional, cell-based; conditions: IGROV-1
[7] = NIH:OVCAR-3 ovarian cancer cell cytotoxicity, dose response, PAX8 inhibitor project, plate reader, dry powder samples (AID 743044); format: functional, cell-based
[8] = A549 cell cytotoxicity, dose response, cytotoxicity control, plate reader, cherry-pick, antagonist series (AID 743412); format: functional, cell-based
[9] = LGR2 antagonists, dose response, cell-based, HEK293, CRE-luciferase reporter, cherry pick (AID 743342); format: functional
[10] = inhibitors of non-replicating M. tuberculosis, dose response, luciferase, dry powder (AID 651620); format: functional; conditions: Mycobacterium tuberculosis
[11] = inhibitors of non-replicating M. tuberculosis, dose response, luciferase, dry powder (AID 651619); format: functional; conditions: Mycobacterium tuberculosis
[12] = growth inhibition of replicating M. tuberculosis, dose response, counter-screen, dry powder, IC90 (AID 651617); format: functional; conditions: Mycobacterium tuberculosis
Protein Wnt-3a = Protein Wnt-3a (Mus musculus, UniProt P27467); test: SAR analysis of small molecule antagonists of Gli-SUFU in a Wnt3a luminescent reporter assay.; format: functional
[13] = target: Delta-type opioid receptor (Homo sapiens, UniProt P41143); test: Late-stage results from the probe development effort to identify antagonists of OPRK1: fluorescence-based cell-based dose response OPRD1 counterscreen, Set 2.; format: functional
Mu-type opioid receptor = Mu-type opioid receptor (Homo sapiens, UniProt P35372); test: Late-stage results from the probe development effort to identify antagonists of OPRK1: luminescence-based cell-based dose response OPRM1 counterscreen, Set 2.; format: functional
[14] = target: Kappa-type opioid receptor (Homo sapiens, UniProt P41145); test: Late-stage fluorescence-based cell-based dose response assay for antagonists of kappa opioid receptor 1 (OPRK1).; format: functional
[15] = target: Sphingosine 1-phosphate receptor 1 (Homo sapiens, UniProt P21453); test: Late-stage counterscreen for antagonists of kappa opioid receptor 1 (OPRK1): fluorescence-based cell-based dose response assay to identify antagonists of Sphingosine 1-Phosphate Receptor 1 (S1P1).; format: functional
[16] = target: Potassium channel subfamily K member 3 (Homo sapiens, UniProt O14649); test: TASK1 (KCNK3) potassium channel inhibitors, SAR follow-up, CHO cells, FluxOR thallium flux (AID 652212); format: functional
[17] = target: Potassium channel subfamily K member 9 (Homo sapiens, UniProt Q9NPC2); test: TASK3 (KCNK9) channel inhibitors, thallium flux, SAR follow-up, selectivity assay for TASK1 inhibitor project, cell-based, FluxOR thallium flux, concentration-response (AID 652211); format: functional;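 also: potency is for inhibitors of the channel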
Albumin = Albumin (Bos taurus, UniProt P02769); test: Counterscreen for inhibitors of T-cell receptor (TCR)-CD3 interaction: Fluorescence-based biochemical high throughput dose response assay to identify inhibitors of T-cell receptor (TCR)-CD3 interaction using a TAMRA-labeled BSA probe.; format: functional
Chain of Albumin (P02769 whole entry): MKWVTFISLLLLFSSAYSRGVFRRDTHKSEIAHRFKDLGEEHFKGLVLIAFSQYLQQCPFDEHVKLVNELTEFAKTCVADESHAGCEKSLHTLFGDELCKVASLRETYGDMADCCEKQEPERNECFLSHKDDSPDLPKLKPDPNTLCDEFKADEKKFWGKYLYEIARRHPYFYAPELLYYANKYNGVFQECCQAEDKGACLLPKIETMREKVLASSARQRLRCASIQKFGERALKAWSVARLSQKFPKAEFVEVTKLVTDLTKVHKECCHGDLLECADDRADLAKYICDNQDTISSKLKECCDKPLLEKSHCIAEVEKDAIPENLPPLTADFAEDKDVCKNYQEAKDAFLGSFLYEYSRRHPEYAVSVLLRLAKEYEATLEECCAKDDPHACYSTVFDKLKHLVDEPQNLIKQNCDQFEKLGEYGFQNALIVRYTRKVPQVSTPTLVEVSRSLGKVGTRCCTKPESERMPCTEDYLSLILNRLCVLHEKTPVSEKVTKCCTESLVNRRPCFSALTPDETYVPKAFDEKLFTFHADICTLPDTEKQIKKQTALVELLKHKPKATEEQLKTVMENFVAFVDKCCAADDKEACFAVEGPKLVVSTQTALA

Chain of Paired box protein Pax-8 (Q06710 whole entry): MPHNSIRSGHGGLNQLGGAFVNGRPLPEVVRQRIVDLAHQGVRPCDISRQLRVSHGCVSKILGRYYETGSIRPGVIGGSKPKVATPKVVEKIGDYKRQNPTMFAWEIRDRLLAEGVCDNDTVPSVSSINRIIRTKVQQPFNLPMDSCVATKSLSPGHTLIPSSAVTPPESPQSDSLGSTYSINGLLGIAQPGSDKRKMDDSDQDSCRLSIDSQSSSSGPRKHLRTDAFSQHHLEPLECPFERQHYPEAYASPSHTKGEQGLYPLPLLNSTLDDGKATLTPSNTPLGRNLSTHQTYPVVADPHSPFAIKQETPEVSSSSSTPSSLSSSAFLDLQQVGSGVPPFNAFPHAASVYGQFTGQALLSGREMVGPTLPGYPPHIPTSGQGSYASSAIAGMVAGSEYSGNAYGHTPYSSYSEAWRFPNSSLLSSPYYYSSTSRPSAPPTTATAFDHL
Chain of Sphingosine 1-phosphate receptor 1 (P21453 whole entry): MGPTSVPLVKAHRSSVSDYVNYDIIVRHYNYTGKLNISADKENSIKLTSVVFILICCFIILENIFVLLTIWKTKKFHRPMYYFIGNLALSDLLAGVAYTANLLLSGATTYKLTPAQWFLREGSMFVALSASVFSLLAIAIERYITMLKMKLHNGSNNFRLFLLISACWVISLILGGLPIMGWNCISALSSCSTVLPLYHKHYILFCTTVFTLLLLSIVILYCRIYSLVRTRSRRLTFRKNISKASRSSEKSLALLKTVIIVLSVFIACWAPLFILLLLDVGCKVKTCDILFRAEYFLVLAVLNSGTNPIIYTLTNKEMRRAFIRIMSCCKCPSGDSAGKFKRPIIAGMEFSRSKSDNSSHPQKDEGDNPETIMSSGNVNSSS
Chain of Mu-type opioid receptor (P35372 whole entry): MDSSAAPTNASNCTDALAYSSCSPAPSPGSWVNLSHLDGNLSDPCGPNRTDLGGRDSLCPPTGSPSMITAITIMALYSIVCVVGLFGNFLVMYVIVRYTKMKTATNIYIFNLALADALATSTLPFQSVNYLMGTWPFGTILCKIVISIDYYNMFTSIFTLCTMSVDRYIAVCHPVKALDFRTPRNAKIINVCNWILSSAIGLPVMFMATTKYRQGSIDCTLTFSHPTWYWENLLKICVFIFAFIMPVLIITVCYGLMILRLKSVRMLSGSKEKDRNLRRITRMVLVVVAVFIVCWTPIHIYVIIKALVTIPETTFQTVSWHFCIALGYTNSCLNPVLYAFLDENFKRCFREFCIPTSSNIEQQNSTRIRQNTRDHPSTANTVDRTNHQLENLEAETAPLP
Chain of Potassium channel subfamily K member 3 (O14649 whole entry): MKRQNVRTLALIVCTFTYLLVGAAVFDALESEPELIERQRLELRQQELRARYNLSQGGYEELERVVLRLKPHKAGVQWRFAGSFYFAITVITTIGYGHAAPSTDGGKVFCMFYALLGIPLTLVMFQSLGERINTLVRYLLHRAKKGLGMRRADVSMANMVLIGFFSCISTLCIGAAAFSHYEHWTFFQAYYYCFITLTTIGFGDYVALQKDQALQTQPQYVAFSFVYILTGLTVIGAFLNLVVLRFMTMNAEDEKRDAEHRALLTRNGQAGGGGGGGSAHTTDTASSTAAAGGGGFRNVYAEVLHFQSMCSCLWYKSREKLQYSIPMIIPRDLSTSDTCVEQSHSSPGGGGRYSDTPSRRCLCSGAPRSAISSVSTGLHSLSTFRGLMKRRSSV
Chain of Delta-type opioid receptor (P41143 whole entry): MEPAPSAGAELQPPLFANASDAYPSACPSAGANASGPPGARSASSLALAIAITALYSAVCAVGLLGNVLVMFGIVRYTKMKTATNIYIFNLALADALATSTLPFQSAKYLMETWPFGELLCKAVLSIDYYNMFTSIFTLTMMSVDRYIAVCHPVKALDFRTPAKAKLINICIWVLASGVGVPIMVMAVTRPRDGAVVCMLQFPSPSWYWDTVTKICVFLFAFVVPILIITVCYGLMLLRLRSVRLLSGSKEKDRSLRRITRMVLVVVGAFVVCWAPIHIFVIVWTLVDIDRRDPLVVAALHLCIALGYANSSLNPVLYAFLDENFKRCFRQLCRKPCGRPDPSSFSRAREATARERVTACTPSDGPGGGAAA
Chain of Potassium channel subfamily K member 9 (Q9NPC2 whole entry): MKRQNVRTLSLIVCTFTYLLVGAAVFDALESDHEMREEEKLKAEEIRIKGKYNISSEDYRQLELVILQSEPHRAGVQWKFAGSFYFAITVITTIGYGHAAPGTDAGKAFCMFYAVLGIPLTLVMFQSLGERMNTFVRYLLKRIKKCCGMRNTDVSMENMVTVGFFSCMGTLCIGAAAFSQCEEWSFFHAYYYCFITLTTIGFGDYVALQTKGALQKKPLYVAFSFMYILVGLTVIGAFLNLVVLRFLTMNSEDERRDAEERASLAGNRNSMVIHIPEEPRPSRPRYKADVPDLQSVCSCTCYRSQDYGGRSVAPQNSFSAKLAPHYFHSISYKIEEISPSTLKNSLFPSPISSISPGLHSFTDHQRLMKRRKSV
Chain of Protein Wnt-3a (P27467 whole entry): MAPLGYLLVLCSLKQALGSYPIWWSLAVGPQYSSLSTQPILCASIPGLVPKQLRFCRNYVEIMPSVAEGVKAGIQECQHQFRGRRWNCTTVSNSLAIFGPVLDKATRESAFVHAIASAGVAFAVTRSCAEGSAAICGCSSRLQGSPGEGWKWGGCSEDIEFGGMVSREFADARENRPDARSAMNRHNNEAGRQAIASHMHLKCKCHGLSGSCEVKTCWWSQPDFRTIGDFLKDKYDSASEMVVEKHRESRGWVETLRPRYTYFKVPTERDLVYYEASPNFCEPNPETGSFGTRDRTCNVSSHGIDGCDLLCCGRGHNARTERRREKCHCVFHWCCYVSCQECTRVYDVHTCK
Chain of Kappa-type opioid receptor (P41145 whole entry): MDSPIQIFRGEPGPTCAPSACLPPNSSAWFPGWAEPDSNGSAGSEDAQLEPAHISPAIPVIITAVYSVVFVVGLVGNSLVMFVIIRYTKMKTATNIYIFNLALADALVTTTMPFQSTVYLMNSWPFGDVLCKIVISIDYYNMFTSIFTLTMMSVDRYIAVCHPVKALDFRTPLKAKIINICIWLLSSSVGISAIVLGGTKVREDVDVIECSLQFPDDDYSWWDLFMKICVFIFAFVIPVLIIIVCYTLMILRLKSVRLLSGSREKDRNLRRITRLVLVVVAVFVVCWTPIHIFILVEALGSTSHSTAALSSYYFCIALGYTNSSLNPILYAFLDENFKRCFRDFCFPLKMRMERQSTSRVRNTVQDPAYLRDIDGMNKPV

For `COC(=O)C1=C(C)N(CC(C)C)C(=S)NC1c1ccc(Cl)cc1` (stereo not given), the AC50 (Cryptococcus neoformans) was 24 µM (active), the AC50 (Cryptococcus neoformans; Cryptococcus neoformans) was 36.5 µM (active) and the AC50 (HeLa) was > 60 µM (inactive).
For `C[C@H]1CN([C@@H](C)CO)C(=O)CCCn2nncc2CO[C@@H]1CN(C)C(=O)Nc1ccc(-c2cccs2)cc1`, the AC50 [1] was 7.43 µM (active), the AC50 (Paired box protein Pax-8) was 0.48 µM (active) and the AC50 [2] was > 70 µM (inactive).
With `COc1ccc(C#Cc2cnc3c(c2)C(=O)N([C@@H](C)CO)C[C@H](C)[C@H](CN(C)CC2CCCC2)O3)cc1` the AC50 [3] was 25.2 µM (active).
For `COc1ccc(NC(=O)N2CC(=O)N3[C@H](C2)[C@H](c2ccc(/C=C/c4ccccc4)cc2)[C@@H]3CO)cc1`, the AC50 [4] was 26 µM (active), the AC50 (Paired box protein Pax-8) was 5.72 µM (active) and the AC50 [5] was 23.2 µM (active). For the same compound, the AC50 [6] was 30.6 µM (active) and the AC50 [7] was 12.4 µM (active).
In the case of `C[C@H](CO)N1C[C@H](C)[C@H](CN(C)C(=O)Nc2ccccc2)OCCCC[C@H](C)Oc2ccc(NC(=O)Nc3ccccc3)cc2C1=O`, the AC50 [8] is reported as > 52 µM (inactive) and the AC50 [9] is reported as 16.9 µM (active).
In the case of `Fc1cccc(-c2nnc(SCc3ccccn3)o2)c1`, the IC90 [10] is reported as 4 µM (active), the IC90 [11] is reported as 4 µM (active) and the IC90 [12] is reported as 125 µM (active).
In the case of `Cc1nc(NC(=O)c2ccccc2)cc(N(C)C)n1`, the IC50 (Protein Wnt-3a) is reported as > 21.8 µM (inactive).
With `O=C(c1cnn(-c2ccc(Cl)cc2)c1C(F)(F)F)N1CCN(c2ncnc3ccsc23)CC1` the IC50 [13] was > 50 µM (inactive), the IC50 (Mu-type opioid receptor) was > 50 µM (inactive) and the IC50 [14] was 1.05 µM (active). The IC50 [15] was > 50 µM (inactive).
In the case of `COc1ccccc1NC(=O)c1cccc(NC(=O)c2ccccc2)c1`, the IC50 [16] is reported as 0.064 µM (active) and the IC50 [17] is reported as 1.41 µM (active).
In the case of `O=c1c2c(-c3ccc(Cl)cc3)csc2ncn1/N=C/c1cccc([N+](=O)[O-])c1O`, the IC50 (Albumin) is reported as > 94.1 µM (inactive).

Reference: ChEMBL document CHEMBL1201862, “PubChem BioAssay data set” (2004)
